Assay results as given in ChEMBL document CHEMBL5620403, “Design, synthesis, activity and molecular dynamics studies of 1,3,4-thiadiazole derivatives as selective allosteric inhibitors of SHP2 for the treatment of cancer” (Eur J Med Chem, 2023).
Blank lines part the entries; values can stand above or below the compound they belong to.

How the values were obtained:
[1] = biological target: T1, Tyrosine-protein phosphatase non-receptor type 11 (Homo sapiens, UniProt Q06124); assay: Inhibition of full length wild type recombinant human IRS-1 peptide activated SHP2 (1 to 525 residues) using DIPMUP as substrate preincubated for 30 mins followed by substrate addition and measured after 30 mins by fluorescence based analysis
T1 sequence (Q06124 whole entry): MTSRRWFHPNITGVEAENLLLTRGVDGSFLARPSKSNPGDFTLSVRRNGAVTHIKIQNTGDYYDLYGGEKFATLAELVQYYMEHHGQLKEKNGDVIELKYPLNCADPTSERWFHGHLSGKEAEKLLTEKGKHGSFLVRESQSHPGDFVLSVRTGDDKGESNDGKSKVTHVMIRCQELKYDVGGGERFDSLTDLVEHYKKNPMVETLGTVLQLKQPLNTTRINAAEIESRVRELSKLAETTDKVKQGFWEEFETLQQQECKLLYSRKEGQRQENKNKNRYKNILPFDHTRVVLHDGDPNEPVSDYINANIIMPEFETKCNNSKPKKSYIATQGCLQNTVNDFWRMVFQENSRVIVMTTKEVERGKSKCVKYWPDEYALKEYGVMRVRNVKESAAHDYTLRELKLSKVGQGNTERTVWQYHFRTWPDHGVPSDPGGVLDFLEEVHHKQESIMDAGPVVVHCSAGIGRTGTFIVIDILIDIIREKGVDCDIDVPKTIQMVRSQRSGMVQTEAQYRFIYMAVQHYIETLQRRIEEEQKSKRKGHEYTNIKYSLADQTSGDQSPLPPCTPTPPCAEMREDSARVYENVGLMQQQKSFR

[2] = Inhibition of full length recombinant human SHP2 E76A mutant (1 to 525 residues) using DIPMUP as substrate preincubated for 30 mins followed by substrate addition and measured after 30 mins by fluorescence based analysis
[3] = biological target: Tyrosine-protein phosphatase non-receptor type 6 (Homo sapiens, UniProt P29350); assay: Inhibition of full length recombinant human SHP1 (1 to 570 residues) using DIPMUP as substrate preincubated for 30 mins followed by substrate addition and measured after 30 mins by fluorescence based analysis
NCI-H358 = assay: Antiproliferative activity against human NCI-H358 cells assessed as inhibition of cell growth measured after 72 hrs by CCK8 method; type: functional, cell-based; settings: NCI-H358, 72 h
MV4-11 [4] = assay: Antiproliferative activity against human MV4-11 cells assessed as inhibition of cell growth measured after 72 hrs by CCK8 method; type: functional, cell-based; settings: MV4-11, 72 h
A549 = assay: Antiproliferative activity against human A549 cells assessed as inhibition of cell growth measured after 72 hrs by CCK8 method; type: functional, cell-based; settings: A549, 72 h
MDA-MB-468 = assay: Antiproliferative activity against human MDA-MB-468 cells assessed as inhibition of cell growth measured after 72 hrs by CCK8 method; type: functional, cell-based; settings: MDA-MB-468, 72 h
MV4-11 [5] = assay: Induction of apoptosis in human MV4-11 cells assessed as viable cells at 1.25 uM measured after 4 hrs by Annexin V-FITC/7-AAD staining based flow cytometric analysis (reference value: 89.1%); type: functional
MV4-11 [6] = assay: Induction of apoptosis in human MV4-11 cells assessed as viable cells at 2.5 uM measured after 4 hrs by Annexin V-FITC/7-AAD staining based flow cytometric analysis (reference value: 89.1%); type: functional
MV4-11 [7] = assay: Induction of apoptosis in human MV4-11 cells assessed as viable cells at 5 uM measured after 4 hrs by Annexin V-FITC/7-AAD staining based flow cytometric analysis (reference value: 89.1%); type: functional
MV4-11 [8] = assay: Induction of apoptosis in human MV4-11 cells assessed as early apoptotic cells at 1.25 uM measured after 4 hrs by Annexin V-FITC/7-AAD staining based flow cytometric analysis (reference value: 5.97%); type: functional
MV4-11 [9] = assay: Induction of apoptosis in human MV4-11 cells assessed as early apoptotic cells at 2.5 uM measured after 4 hrs by Annexin V-FITC/7-AAD staining based flow cytometric analysis (reference value: 5.97%); type: functional
MV4-11 [10] = assay: Induction of apoptosis in human MV4-11 cells assessed as early apoptotic cells at 5 uM measured after 4 hrs by Annexin V-FITC/7-AAD staining based flow cytometric analysis (reference value: 5.97%); type: functional
MV4-11 [11] = assay: Induction of apoptosis in human MV4-11 cells assessed as late apoptotic cells at 1.25 uM measured after 4 hrs by Annexin V-FITC/7-AAD staining based flow cytometric analysis (reference value: 4.03%); type: functional
MV4-11 [12] = assay: Induction of apoptosis in human MV4-11 cells assessed as late apoptotic cells at 2.5 uM measured after 4 hrs by Annexin V-FITC/7-AAD staining based flow cytometric analysis (reference value: 4.03%); type: functional
MV4-11 [13] = assay: Induction of apoptosis in human MV4-11 cells assessed as late apoptotic cells at 5 uM measured after 4 hrs by Annexin V-FITC/7-AAD staining based flow cytometric analysis (reference value: 4.03%); type: functional
MV4-11 [14] = assay: Induction of apoptosis in human MV4-11 cells assessed as necrotic cells at 1.25 uM measured after 4 hrs by Annexin V-FITC/7-AAD staining based flow cytometric analysis (reference value: 0.86%); type: functional
MV4-11 [15] = assay: Induction of apoptosis in human MV4-11 cells assessed as necrotic cells at 2.5 uM measured after 4 hrs by Annexin V-FITC/7-AAD staining based flow cytometric analysis (reference value: 0.86%); type: functional
MV4-11 [16] = assay: Induction of apoptosis in human MV4-11 cells assessed as necrotic cells at 5 uM measured after 4 hrs by Annexin V-FITC/7-AAD staining based flow cytometric analysis (reference value: 0.86%); type: functional
MV4-11 [17] = assay: Induction of apoptosis in human MV4-11 cells assessed as viable cells at 5 uM measured after 1 hrs by Annexin V-FITC/7-AAD staining based flow cytometric analysis (reference value: 90.1%); type: functional
MV4-11 [18] = assay: Induction of apoptosis in human MV4-11 cells assessed as viable cells at 5 uM measured after 2 hrs by Annexin V-FITC/7-AAD staining based flow cytometric analysis (reference value: 90.1%); type: functional
MV4-11 [19] = assay: Induction of apoptosis in human MV4-11 cells assessed as viable cells at 5 uM measured after 4 hrs by Annexin V-FITC/7-AAD staining based flow cytometric analysis (reference value: 90.1%); type: functional
MV4-11 [20] = assay: Induction of apoptosis in human MV4-11 cells assessed as early apoptotic cells at 5 uM measured after 1 hrs by Annexin V-FITC/7-AAD staining based flow cytometric analysis (reference value: 4.28%); type: functional
MV4-11 [21] = assay: Induction of apoptosis in human MV4-11 cells assessed as early apoptotic cells at 5 uM measured after 2 hrs by Annexin V-FITC/7-AAD staining based flow cytometric analysis (reference value: 4.28%); type: functional
MV4-11 [22] = assay: Induction of apoptosis in human MV4-11 cells assessed as early apoptotic cells at 5 uM measured after 4 hrs by Annexin V-FITC/7-AAD staining based flow cytometric analysis (reference value: 4.28%); type: functional
MV4-11 [23] = assay: Induction of apoptosis in human MV4-11 cells assessed as late apoptotic cells at 5 uM measured after 1 hrs by Annexin V-FITC/7-AAD staining based flow cytometric analysis (reference value: 4.21%); type: functional
MV4-11 [24] = assay: Induction of apoptosis in human MV4-11 cells assessed as late apoptotic cells at 5 uM measured after 2 hrs by Annexin V-FITC/7-AAD staining based flow cytometric analysis (reference value: 4.21%); type: functional
MV4-11 [25] = assay: Induction of apoptosis in human MV4-11 cells assessed as late apoptotic cells at 5 uM measured after 4 hrs by Annexin V-FITC/7-AAD staining based flow cytometric analysis (Rvb =4.21%); type: functional
MV4-11 [26] = assay: Induction of apoptosis in human MV4-11 cells assessed as necrotic cells at 5 uM measured after 1 hrs by Annexin V-FITC/7-AAD staining based flow cytometric analysis (reference value: 0.92%); type: functional
MV4-11 [27] = assay: Induction of apoptosis in human MV4-11 cells assessed as necrotic cells at 5 uM measured after 2 hrs by Annexin V-FITC/7-AAD staining based flow cytometric analysis (reference value: 0.92%); type: functional
MV4-11 [28] = assay: Induction of apoptosis in human MV4-11 cells assessed as necrotic cells at 5 uM measured after 4 hrs by Annexin V-FITC/7-AAD staining based flow cytometric analysis (reference value: 0.92%); type: functional
[29] = biological target: T1, Tyrosine-protein phosphatase non-receptor type 11; assay: Inhibition of recombinant human SHP2 PTPase activity (219 to 525 residues) using DIPMUP as substrate preincubated for 30 mins followed by substrate addition and measured after 30 mins by fluorescence based analysis
[30] = biological target: T1, Tyrosine-protein phosphatase non-receptor type 11; assay: Inhibition of full length wild type recombinant human SHP2 (1 to 525 residues) using DIPMUP as substrate preincubated for 30 mins followed by substrate addition and measured after 30 mins by fluorescence based analysis
BEAS-2B = assay: Antiproliferative against human BEAS-2B cells assessed as inhibition of cell growth measured after 72 hrs by CCK8 method; type: toxicity, cell-based

Sequence of Tyrosine-protein phosphatase non-receptor type 6 (P29350 whole entry, the tested form may be a part): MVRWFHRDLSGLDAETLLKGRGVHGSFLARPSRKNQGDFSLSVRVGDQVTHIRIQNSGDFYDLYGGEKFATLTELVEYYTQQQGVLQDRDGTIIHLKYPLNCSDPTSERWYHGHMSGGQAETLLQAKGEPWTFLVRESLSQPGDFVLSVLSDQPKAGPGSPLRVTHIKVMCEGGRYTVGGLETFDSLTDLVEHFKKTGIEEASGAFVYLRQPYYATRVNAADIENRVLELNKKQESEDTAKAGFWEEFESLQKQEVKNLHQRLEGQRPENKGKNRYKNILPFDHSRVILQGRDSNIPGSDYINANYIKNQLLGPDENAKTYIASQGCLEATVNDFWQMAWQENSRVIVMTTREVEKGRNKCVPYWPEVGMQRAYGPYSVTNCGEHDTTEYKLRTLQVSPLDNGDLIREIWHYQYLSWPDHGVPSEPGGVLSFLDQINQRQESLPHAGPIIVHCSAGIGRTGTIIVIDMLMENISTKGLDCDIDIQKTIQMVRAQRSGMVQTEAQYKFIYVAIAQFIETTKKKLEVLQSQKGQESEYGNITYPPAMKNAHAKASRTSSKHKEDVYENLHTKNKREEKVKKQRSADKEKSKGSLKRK

IC50 [1]: 5.89 µM
SMILES: CC1(N)CCN(c2nnc(-c3cccc(Cl)c3Cl)s2)CC1

IC50 [1]: 6.99 µM
SMILES: CC1(N)CCN(c2nnc(Sc3ccccc3F)s2)CC1

IC50 [1]: 1.12 µM
SMILES: CC1(CN)CCN(c2nnc(Sc3cccc(Cl)c3Cl)s2)CC1

SMILES: CC1(N)CCN(c2cnc(-c3cccc(Cl)c3Cl)c(N)n2)CC1
IC50 [2]: 1.43 µM
IC50 [3]: > 50 µM
IC50 (NCI-H358): > 50 µM
IC50 (MV4-11 [4]): 2.78 µM
IC50 (A549): > 50 µM
IC50 (MDA-MB-468): 31.8 µM
Activity (MV4-11 [5]): 88.1%
Activity (MV4-11 [6]): 88.2%
Activity (MV4-11 [7]): 89.3%
Activity (MV4-11 [8]): 4.94%
Activity (MV4-11 [9]): 5.95%
Activity (MV4-11 [10]): 5%
Activity (MV4-11 [11]): 4.24%
Activity (MV4-11 [12]): 5.06%
Activity (MV4-11 [13]): 4.89%
Activity (MV4-11 [14]): 0.66%
Activity (MV4-11 [15]): 0.79%
Activity (MV4-11 [16]): 0.85%
Activity (MV4-11 [17]): 90.4%
Activity (MV4-11 [18]): 90%
Activity (MV4-11 [19]): 87.7%
Activity (MV4-11 [20]): 4.27%
Activity (MV4-11 [21]): 4.73%
Activity (MV4-11 [22]): 6.98%
Activity (MV4-11 [23]): 4.32%
Activity (MV4-11 [24]): 4.35%
Activity (MV4-11 [25]): 4.58%
Activity (MV4-11 [26]): 1.05%
Activity (MV4-11 [27]): 0.95%
Activity (MV4-11 [28]): 0.77%

IC50 [1]: 3.82 µM
SMILES: NCC1CCN(c2nnc(Sc3cccc(Cl)c3Cl)s2)CC1

IC50 [1]: 4.51 µM
SMILES: CC1(N)CCN(c2nnc(Sc3cccc4cccnc34)s2)CC1

IC50 [1]: 5.53 µM
SMILES: NC1CCN(c2nnc(Sc3cccc(Cl)c3Cl)s2)CC1

IC50 [1]: 4.95 µM
SMILES: COc1ccc2cc(-c3nnc(N4CCC(C)(N)CC4)s3)ccc2c1

IC50 [1]: 5.43 µM
SMILES: CC1(N)CCN(c2nnc(Sc3ccc(Cl)cc3Cl)s2)CC1

IC50 [1]: 3.29 µM
SMILES: CC1(N)CCN(c2nnc(Sc3ccccc3Cl)s2)CC1

SMILES: CC1(N)CCN(c2nnc(-c3cccc4ccccc34)s2)CC1
IC50 [1]: 4.35 µM
IC50 [29]: > 50 µM
IC50 [3]: > 50 µM
IC50 (NCI-H358): 32.9 µM
IC50 (MV4-11 [4]): 3.32 µM
IC50 (A549): 19 µM
IC50 (MDA-MB-468): 5.42 µM

SMILES: CC1(N)CCN(c2nnc(Sc3ccc4ccccc4c3)s2)CC1
IC50 [1]: 0.72 µM
IC50 [30]: 1.86 µM
IC50 [29]: > 50 µM
IC50 [3]: > 50 µM
IC50 (NCI-H358): 13.9 µM
IC50 (MV4-11 [4]): 3.02 µM
IC50 (A549): 13.8 µM
IC50 (MDA-MB-468): 3.64 µM
Activity (BEAS-2B): Toxic

IC50 [1]: 4.42 µM
SMILES: CC1(N)CCN(c2nnc(Sc3ccc(Cl)c(Cl)c3)s2)CC1

IC50 [1]: 4.35 µM
SMILES: CC1(N)CCN(c2nnc(-c3ccc4ccccc4c3)s2)CC1

SMILES: CC1(N)CCN(c2nnc(Sc3cccc(Cl)c3Cl)s2)CC1
IC50 [1]: 0.97 µM
IC50 [30]: 3.69 µM
IC50 [29]: > 50 µM
IC50 [3]: > 50 µM
IC50 (NCI-H358): 8.64 µM
IC50 (MV4-11 [4]): 2.74 µM
IC50 (A549): 7.21 µM
IC50 (MDA-MB-468): 2.87 µM
Activity (BEAS-2B): Toxic
